Measured values as given in patent US11702404B2, “GLP-1R modulating compounds” (priority 2019, dated 2023).
pEC50: −log10 of the molar value. Where two headings read alike, the source gives them in different places.

How the values were obtained:
GLP-1R = GLP-1R (Homo sapiens, UniProt P43220); assay: GLP-1R activation: cAMP increase in CHO cells stably expressing GLP-1R; format: cell-based; conditions: for pEC50: read-out: EC50
[1] = Microsomal stability, human liver microsomes (predicted hepatic clearance); conditions: predicted from in vitro microsomal stability data
[2] = cAMP increase, CHO cells stably expressing GLP-1R, 10 point dose response, 30 minutes incubation

GLP-1R, sequence (P43220 24-463): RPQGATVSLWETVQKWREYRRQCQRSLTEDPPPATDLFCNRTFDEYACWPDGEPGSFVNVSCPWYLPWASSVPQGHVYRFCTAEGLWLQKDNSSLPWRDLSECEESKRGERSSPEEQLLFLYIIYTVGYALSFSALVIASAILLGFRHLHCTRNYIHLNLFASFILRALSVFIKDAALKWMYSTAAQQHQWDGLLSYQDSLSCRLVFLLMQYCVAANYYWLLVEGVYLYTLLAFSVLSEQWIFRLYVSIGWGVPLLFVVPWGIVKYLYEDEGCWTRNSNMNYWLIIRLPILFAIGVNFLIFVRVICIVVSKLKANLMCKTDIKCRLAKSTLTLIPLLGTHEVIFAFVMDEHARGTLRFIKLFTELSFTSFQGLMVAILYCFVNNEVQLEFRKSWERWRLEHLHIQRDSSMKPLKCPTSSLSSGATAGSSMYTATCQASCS

| SMILES | pEC50 (GLP-1R; [2]) | Predicted Hepatic Clearance (Pred. Cl.) [1] | EC50 (GLP-1R; EC50 (nM)) | pEC50 (GLP-1R) |
| --- | --- | --- | --- | --- |
| COCCn1c(Cc2cc(F)c(-c3cccc(OCc4ccc(F)cc4C)n3)cc2F)nc2ccc(C(=O)O)cc21 [Example 816] | 9.00 | 9.5 mL/min/kg |  |  |
| COCCn1c(Cc2ccc(-c3cccc(OCc4ccc(C#N)cc4F)n3)c(C)c2)nc2ccc(C(=O)O)cc21 [Example 20, 2-{[4-[6-[(4-cyano-2-fluoro-phenyl)methoxy]-2-pyridyl]-3-methyl-phenyl]methyl}-3-(2-methoxyethyl)benzimidazole-5-carboxylic acid] |  | 2.33 mL/min/kg | 24.1 nM |  |
| N#Cc1ccc(COc2cccc(-c3cc(F)c(Cc4nc5ccc(C(=O)O)cc5n4Cc4cncs4)cc3F)n2)c(F)c1 [Example 706] | 8.88 | 12.2 mL/min/kg |  |  |
| N#Cc1ccc(COc2cccc(-c3cc(F)c(Cc4nc5ccc(C(=O)O)cc5n4CC4CC5CCN4CC5)cc3F)n2)c(F)c1 (stereo not drawn) [Example 740] |  | 2.17 mL/min/kg |  | 5.93 |
| N#Cc1ccc(COc2cccc(-c3ccc(Cc4nc5ccc(C(=O)O)nc5n4CC4(CF)CC4)cc3F)n2)c(F)c1 [Example 277, 2-(4-(6-((4-cyano-2-fluorobenzyl)oxy)pyridin-2-yl)-3-fluorobenzyl)-3-((1-(fluoromethyl)cyclopropyl)methyl)-3H-imidazo[4,5-b]pyridine-5-carboxylic acid] | 8.80 | 7.17 mL/min/kg |  |  |
| COCCn1c(Cc2cc(F)c(-c3cccc(OCc4ccc(Cl)cc4F)n3)cc2F)nc2c(F)cc(C(=O)O)cc21 [Example 662] | 9.41 | 3.67 mL/min/kg |  |  |
| CO[C@@H](C)Cn1c(Cc2cc(F)c(-c3cccc(OCc4ccc(C#N)cc4F)n3)cc2F)nc2ccc(C(=O)O)cc21 [Example 587, (S)-2-(4-(6-((4-cyano-2-fluorobenzyl)oxy)pyridin-2-yl)-2,5-difluorobenzyl)-1-(2-methoxypropyl)-1H-benzo[d]imidazole-6-carboxylic acid] | 8.67 | 6.83 mL/min/kg |  |  |
| COCCn1c(Cc2cc(F)c(-c3cccc(OCc4ccc(C#N)cc4F)n3)cc2F)nc2cc(F)c(C(=O)O)cc21 [Example 218, 2-(4-(6-((4-cyano-2-fluorobenzyl)oxy)pyridin-2-yl)-2,5-difluorobenzyl)-5-fluoro-1-(2-methoxyethyl)-1H-benzo[d]imidazole-6-carboxylic acid] | 7.72 | 7.83 mL/min/kg |  |  |
| CO[C@H]1COC[C@@H]1n1c(Cc2cc(F)c(-c3cccc(OCc4ccc(C#N)cc4F)n3)cc2F)nc2ccc(C(=O)O)cc21 [Example 712] | 8.59 | 6.83 mL/min/kg |  |  |
| COCCn1c(Cc2ccc(-c3cccc(OCc4ccccc4)n3)cc2F)nc2ccc(C(=O)O)cc21 [Example 501, 2-(4-(6-(benzyloxy)pyridin-2-yl)-2-fluorobenzyl)-1-(2-methoxyethyl)-1H-benzo[d]imidazole-6-carboxylic acid] | 6.99 | 11.5 mL/min/kg |  |  |
| N#Cc1ccc(COc2cccc(-c3cc(F)c(Cc4nc5ccc(C(=O)O)cc5n4Cc4cnns4)cc3F)n2)c(F)c1 [Example 569, 1-((1,2,3-thiadiazol-5-yl)methyl)-2-(4-(6-((4-cyano-2-fluorobenzyl)oxy)pyridin-2-yl)-2,5-difluorobenzyl)-1H-benzo[d]imidazole-6-carboxylic acid] | 7.98 | 17 mL/min/kg |  |  |
| N#Cc1ccc(COc2cccc(-c3ccc(Cc4nc5ccc(C(=O)O)cc5n4CC4(O)COC4)c(F)c3)n2)c(F)c1 [Example 316, 2-(4-(6-((4-cyano-2-fluorobenzyl)oxy)pyridin-2-yl)-2-fluorobenzyl)-1-((3-hydroxyoxetan-3-yl)methyl)-1H-benzo[d]imidazole-6-carboxylic acid] | 7.86 | 4.67 mL/min/kg |  |  |
| N#Cc1ccc(COc2cccc(-c3cc(F)c(Cc4nc5c(F)cc(C(=O)O)cc5n4C[C@@H]4CCCO4)cc3F)n2)c(F)c1 [Example 831] | 9.62 | 2.83 mL/min/kg |  |  |
| N#Cc1ccc(COc2nccc(-c3cc(F)c(Cc4nc5ccc(C(=O)O)nc5n4CC4(CF)CC4)c(F)c3)n2)c(F)c1 [Example 298, 2-(4-(2-((4-cyano-2-fluorobenzyl)oxy)pyrimidin-4-yl)-2,6-difluorobenzyl)-3-((1-(fluoromethyl)cyclopropyl)methyl)-3H-imidazo[4,5-b]pyridine-5-carboxylic acid] | 8.32 | <1.83 mL/min/kg |  |  |
| N#Cc1ccc(COc2cccc(-c3ccc(Cc4nc5ccc(C(=O)O)cc5n4CCCF)c(F)c3)n2)c(F)c1 [Example 379, 2-(4-(6-((4-cyano-2-fluorobenzyl)oxy)pyridin-2-yl)-2-fluorobenzyl)-1-(3-fluoropropyl)-1H-benzo[d]imidazole-6-carboxylic acid] | 8.55 | 3.5 mL/min/kg |  |  |
| COCCn1c(Cc2ccc(-c3cccc(OCc4ccc(C#N)cc4F)n3)cc2F)nc2ccc(C(=O)O)c(F)c21 [Example 364, 2-(4-(6-((4-cyano-2-fluorobenzyl)oxy)pyridin-2-yl)-2-fluorobenzyl)-7-fluoro-1-(2-methoxyethyl)-1H-benzo[d]imidazole-6-carboxylic acid] | 8.75 | 3.83 mL/min/kg |  |  |
| COC1(Cn2c(Cc3cc(F)c(-c4cccc(OCc5ccc(C#N)cc5F)n4)cc3F)nc3ccc(C(=O)O)cc32)CC1 [Example 746] | 9.06 | 5 mL/min/kg |  |  |
| COCCn1c(Cc2ccc(-c3cccc(OCc4ccccc4N)n3)cc2F)nc2ccc(C(=O)O)cc21 [Example 498, 2-(4-(6-((2-aminobenzyl)oxy)pyridin-2-yl)-2-fluorobenzyl)-1-(2-methoxyethyl)-1H-benzo[d]imidazole-6-carboxylic acid] |  | <1.83 mL/min/kg |  |  |
| N#Cc1ccc(COc2cccc(-c3ccc(Cc4nc5ccc(C(=O)O)cc5n4CC4CCO4)c(F)c3)n2)c(F)c1 (single isomer, unassigned) [Example 67, 2-(4-(6-((4-Cyano-2-fluorobenzyl)oxy)pyridin-2-yl)-2-fluorobenzyl)-1-(oxetan-2-ylmethyl)-1H-benzo[d]imidazole-6-carboxylic acid] |  | 5.17 mL/min/kg |  |  |
| CC(=O)N1CCC[C@H]1Cn1c(Cc2ccc(-c3ccc(F)c(OCc4ccc(Cl)cc4F)c3)cc2F)nc2ccc(C(=O)O)cc21 [Example 464, (S)-1-((1-acetylpyrrolidin-2-yl)methyl)-2-((3′-((4-chloro-2-fluorobenzyl)oxy)-3,4′-difluoro-[1,1′-biphenyl]-4-yl)methyl)-1H-benzo[d]imidazole-6-carboxylic acid] |  | 4 mL/min/kg |  |  |
| CC(=O)N1CCC[C@H]1Cn1c(Cc2ccc(-c3ccc(F)c(OCc4ccc(Cl)cc4F)c3)cc2F)nc2ccc(C(=O)O)cc21 [Example 482, 3-[[(2S)-1-acetylpyrrolidin-2-yl]methyl]-2-[[4-[3-[(4-chloro-2-fluoro-phenyl)methoxy]-4-fluoro-phenyl]-2-fluoro-phenyl]methyl]benzimidazole-5-carboxylic acid] |  | 4.83 mL/min/kg |  |  |
| COCCn1c(Cc2ccc(-c3cccc(OCc4ccc(C#N)cc4F)n3)c(NC(C)=O)c2)nc2ccc(C(=O)O)cc21 [Example 253, 2-(3-acetamido-4-(6-((4-cyano-2-fluorobenzyl)oxy)pyridin-2-yl)benzyl)-1-(2-methoxyethyl)-1H-benzo[d]imidazole-6-carboxylic acid] |  | 14 mL/min/kg |  |  |
| COCCn1c(Cc2cc(F)c(-c3ccc(F)c(OCc4cc(F)c(C#N)cc4F)n3)cc2F)nc2c(F)cc(C(=O)O)cc21 [Example 763] |  | 1.83 mL/min/kg |  |  |
| N#Cc1ccc(COc2cccc(-c3ccc(Cc4nc5ccc(C(=O)O)cc5n4CC4CCO4)c(F)c3)n2)c(F)c1 (single isomer, unassigned) [Example 68, 2-(4-(6-((4-Cyano-2-fluorobenzyl)oxy)pyridin-2-yl)-2-fluorobenzyl)-1-(oxetan-2-ylmethyl)-1H-benzo[d]imidazole-6-carboxylic acid] |  | <1.83 mL/min/kg |  |  |
| COCCn1c(Cc2ccc(-c3cccc(OCc4ccc(C#N)cc4F)n3)cc2-c2cccnc2)nc2ccc(C(=O)O)cc21 [Example 185, 2-(4-(6-((4-cyano-2-fluorobenzyl)oxy)pyridin-2-yl)-2-(pyridin-3-yl)benzyl)-1-(2-methoxyethyl)-1H-benzo[d]imidazole-6-carboxylic acid] |  | 12 mL/min/kg |  |  |
| CCOP(=O)(OCC)c1ccc2nc(Cc3ccc(-c4cccc(OCc5ccc(C#N)cc5F)n4)cc3F)n(CCOC)c2c1 [Example 556, Diethyl (2-(4-(6-((4-cyano-2-fluorobenzyl)oxy)pyridin-2-yl)-2-fluorobenzyl)-1-(2-methoxyethyl)-1H-benzo[d]imidazol-6-yl)phosphonate] |  | 19.5 mL/min/kg |  |  |
| COCCn1c(Cc2ccc(-c3cccc(OCc4ccc(C(F)(F)F)nc4N)n3)cc2F)nc2ccc(C(=O)O)cc21 [Example 595, 2-(4-(6-((2-amino-6-(trifluoromethyl)pyridin-3-yl)methoxy)pyridin-2-yl)-2-fluorobenzyl)-1-(2-methoxyethyl)-1H-benzo[d]imidazole-6-carboxylic acid] |  | 6.17 mL/min/kg |  |  |
| COCCn1c(Cc2ccc(-c3cccc(OCn4ccc(C(=O)O)cc4=O)n3)cc2F)nc2ccc(C(=O)O)cc21 [Example 503, 2-(4-(6-((4-carboxy-2-oxopyridin-1(2H)-yl)methoxy)pyridin-2-yl)-2-fluorobenzyl)-1-(2-methoxyethyl)-1H-benzo[d]imidazole-6-carboxylic acid] |  | <1.83 mL/min/kg |  |  |
